# In patent US20260041690A1, “Treatment of Memory Loss with Phosphodiesterase Inhibitors” (Cyrano Therapeutics, Inc., priority 2023, published 2026):
# How the values were obtained:
# [1] = test system: memory loss associated with sleep deprivation; test: Treatment of memory loss associated with sleep deprivation in a subject; format: in vivo; conditions: nasal spray, effective dose 3× daily in each naris
# Description: A subject is admitted to a clinic for a memory loss associated with sleep deprivation. The subject is prescribed a roflumilast composition in a nasal spray device described herein. The subject administers the nasal spray in an effective dose 3× daily in each naris. The nasal spray is characterized by a spray containing a D50 of about 15 μm to about 24 μm, a D90 of from about 30 μm to about […] and where less than about 3% of the droplets in the plume of a spray have a size of less than about 10 μm.
# [2] = cited from earlier work
Structure (SMILES),memory retention after administration [1],solubility of theophylline in ethanol ([2]; in ethanol),solubility of theophylline in water ([2]; in water)
O=C(Nc1c(Cl)cncc1Cl)c1ccc(OC(F)F)c(OCC2CC2)c1 [roflumilast],improved memory retention,,
Cn1c(=O)c2[nH]cnc2n(C)c1=O [theophylline],,14 to 15 mg/mL,7 to 8 mg/mL
